Our source for the IC50 values is US9765056B2, “Indole and pyrrole compounds, a process for their preparation and pharmaceutical compositions containing them” (LES LABORATOIRES SERVIER, priority 2013, dated 2017).

Where a name gives a salt, the structure may show the parent alone.

In assay [1] the test system is RS4;11 leukaemia tumour line. Nature of the assay: In vitro cytotoxicity, Microculture Tetrazolium Assay (MTT). It is filed as cell-based. The settings on record: Homo sapiens; RS4;11 cells, 48 hours exposure. Here is the method:
The cytotoxicity studies were carried out on the RS4;11 leukaemia tumour line.
The cells are distributed onto microplates and exposed to the test compounds for 48 hours. The cell viability is then quantified by a colorimetric assay, the Microculture Tetrazolium Assay (Cancer Res., 1987, 47, 939-942).

The target of another assay is Bcl-2 protein (histag-Bcl-2, UniProtKB P10415) (Homo sapiens (Human), UniProt P10415). Kind of assay: Inhibition of Bcl-2 by the fluorescence polarisation technique. It counts as binding. The settings on record: fluorescence polarisation test; method A, or method B where underlined (underlining not visible); read-out: IC50 (nM) Bcl-2 FP. The source says:
Inhibition of Bcl-2 by the fluorescence polarisation technique

Sequence of Bcl-2 protein (P10415 whole entry): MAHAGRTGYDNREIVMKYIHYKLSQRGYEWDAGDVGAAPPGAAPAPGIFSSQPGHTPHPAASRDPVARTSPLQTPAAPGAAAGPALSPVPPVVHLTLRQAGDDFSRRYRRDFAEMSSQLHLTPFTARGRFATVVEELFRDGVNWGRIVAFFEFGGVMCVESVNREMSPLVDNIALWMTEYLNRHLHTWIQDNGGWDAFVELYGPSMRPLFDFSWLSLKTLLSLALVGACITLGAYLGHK

Take `Cc1cc(C(=O)N(c2ccccc2)c2ccccc2)cn1-c1ccccc1C(=O)N1Cc2ccccc2C[C@H]1CN` [Example 5, 1-(2-{[(3S)-3-(Aminomethyl)-3,4-dihydroisoquinolin-2(1H)-yl]-carbonyl}phenyl)-5-methyl-N,N-diphenyl-1H-pyrrole-3-carboxamide trifluoroacetate]: the results for the IC50 (in assay [1]; at Bcl-2 protein) were 2590 nM and 213 nM, respectively.

Regarding `Cc1cc(C(=O)N(c2ccccc2)c2ccccc2)cn1-c1cc(O)ccc1C(=O)N1Cc2ccccc2C[C@H]1CN` [Example 6, 1-(2-{[(3S)-3-(Aminomethyl)-3,4-dihydroisoquinolin-2(1H)-yl]-carbonyl}-5-hydroxyphenyl)-5-methyl-N,N-diphenyl-1H-pyrrole-3-carboxamide], the IC50 in assay [1] came to 915 nM; at Bcl-2 protein it was 50.5 nM.

In the case of `Cc1cc(C(=O)N(c2ccccc2)c2ccc3[nH]ccc3c2)cn1-c1ccccc1C(=O)N1Cc2ccccc2C[C@H]1CN(C)C` [Example 10, 1-(2-{[(3S)-3-[(Dimethylamino)methyl]-3,4-dihydroisoquinolin-2(1H)-yl]carbonyl}phenyl)-N-(1H-indol-5-yl)-5-methyl-N-phenyl-1H-pyrrole-3-carboxamide], the IC50 in assay [1] stood at 2220 nM; at Bcl-2 protein, 146 nM.

As to `Cc1cc(C(=O)N(c2ccccc2)c2ccc(O)cc2)cn1-c1cc(C(F)(F)F)ccc1C(=O)N1Cc2ccccc2C[C@H]1CN(C)C` [Example 12, 1-[2-{[(3S)-3-[(Dimethylamino)methyl]-3,4-dihydroisoquinolin-2(1H)-yl]carbonyl}-5-(trifluoromethyl)phenyl]-N-(4-hydroxyphenyl)-5-methyl-N-phenyl-1H-pyrrole-3-carboxamide], the IC50 was found to be 1810 nM in assay [1] and 120 nM at Bcl-2 protein.

In the case of `Cc1cc(C(=O)N(c2ccccc2)c2ccc(O)cc2)cn1-c1cc(Cl)ccc1C(=O)N1Cc2ccccc2C[C@H]1CN(C)C` [Example 13, 1-(5-Chloro-2-{[(3S)-3-[(dimethylamino)methyl]-3,4-dihydroisoquinolin-2(1H)-yl]carbonyl}phenyl)-N-(4-hydroxyphenyl)-5-methyl-N-phenyl-1H-pyrrole-3-carboxamide], the IC50 worked out at 462 nM in assay [1] and 16.2 nM at Bcl-2 protein.

In the case of `Cc1cc(C(=O)N(c2ccccc2)c2ccc(O)cc2)cn1-c1cc(F)ccc1C(=O)N1Cc2ccccc2C[C@H]1CN(C)C` [Example 14, 1-(2-{[(3S)-3-[(Dimethylamino)methyl]-3,4-dihydroisoquinolin-2(1H)-yl]carbonyl}-5-fluorophenyl)-N-(4-hydroxyphenyl)-5-methyl-N-phenyl-1H-pyrrole-3-carboxamide], the IC50 was determined as 1270 nM in assay [1] and 24.8 nM at Bcl-2 protein.

Consider `Cc1cc(C(=O)N(c2ccccc2)c2ccc(O)cc2)cn1-c1cc(O)ccc1C(=O)N1Cc2ccccc2C[C@H]1CN1CCOCC1` [Example 15, 1-(5-Hydroxy-2-{[(3S)-3-(morpholin-4-ylmethyl)-3,4-dihydroisoquinolin-2(1H)-yl]carbonyl}phenyl)-N-(4-hydroxyphenyl)-5-methyl-N-phenyl-1H-pyrrole-3-carboxamide], for which the IC50 in assay [1] was determined as 759 nM; on Bcl-2 protein, 22.1 nM.

Regarding `NC[C@@H]1Cc2ccccc2CN1C(=O)c1ccccc1-n1nc(C(=O)N(c2ccccc2)c2ccccc2)c2ccc(C(=O)O)cc21` [Example 133, 1-{2-[(3S)-3-(Aminomethyl)-1,2,3,4-tetrahydroisoquinoline-2-carbonyl]-phenyl}-3-(diphenylcarbamoyl)-1H-indazole-6-carboxylic acid], on Bcl-2 protein, the IC50 amounted to 841 nM.

For the compound `CN1CCN(C[C@@H]2Cc3ccccc3CN2C(=O)c2cc(O)c(O)cc2-n2cc(C(=O)N(c3ccccc3)c3ccc(O)cc3)c3ccccc32)CC1` [Example 183, 1-{4,5-Dihydroxy-2-[(3S)-3-[(4-methylpiperazin-1-yl)methyl]-1,2,3,4-tetrahydroisoquinoline-2-carbonyl]phenyl}-N-(4-hydroxyphenyl)-N-phenyl-1H-indole-3-carboxamide], the IC50 at Bcl-2 protein turned out to be 8.3 nM.
